Source: paper PMC10331583, “Control of fibrosis with enhanced safety via asymmetric inhibition of prolyl‐tRNA synthetase 1” (EMBO Molecular Medicine, 2023)
Changes are numbered by the printed parent chain. Values joined by “and” are separate entries in the source; they are usually repeats but may differ in a detail not shown here. Equal values may be shown once. Read-outs that look alike come from different tables or passages of the source.

Columns and labels:
[1] = molecular target: T1, PARS1 F1097A/E1123A/R1152L (FA/EA/RL) mutant (Homo sapiens, UniProt P07814, E1123A/F1097A/R1152L); test: Microscale thermophoresis (MST), PARS1 mutant; assay type: binding; details: for Fraction bound: single replicates
T1 construct: His‐PARS1 (1001–1,512 aa); made in house; host or cells: Escherichia coli
T1 sequence (P07814 1001-1512 F1097A/E1123A/R1152L): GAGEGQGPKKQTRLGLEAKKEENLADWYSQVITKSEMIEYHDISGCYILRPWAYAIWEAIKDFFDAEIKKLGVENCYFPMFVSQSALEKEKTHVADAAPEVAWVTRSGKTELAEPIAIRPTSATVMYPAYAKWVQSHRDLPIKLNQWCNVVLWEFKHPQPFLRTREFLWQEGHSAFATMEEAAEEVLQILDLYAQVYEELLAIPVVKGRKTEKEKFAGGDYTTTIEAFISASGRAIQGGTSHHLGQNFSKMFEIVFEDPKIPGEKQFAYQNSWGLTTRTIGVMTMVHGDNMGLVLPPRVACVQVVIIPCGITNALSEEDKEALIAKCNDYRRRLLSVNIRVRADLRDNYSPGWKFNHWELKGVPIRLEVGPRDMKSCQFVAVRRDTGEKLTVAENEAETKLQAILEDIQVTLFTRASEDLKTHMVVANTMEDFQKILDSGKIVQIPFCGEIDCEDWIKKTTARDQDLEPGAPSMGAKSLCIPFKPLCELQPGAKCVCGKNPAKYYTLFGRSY

[2] = system: WI‐26 VA4 cells stably expressing EV (empty vector); test: Collagen ELISA in cells stably expressing EV; details: for Collagen level, average: average of 4 experiments; for Collagen level, single replicates: replicates of Experiments #1-#4
His‐PARS1 = molecular target: T2, His‐PARS1 (Homo sapiens, UniProt P07814); test: Surface plasmon resonance (SPR); assay type: binding; details: read-out: KD
T2 construct: His‐PARS1 (1001–1,512 aa); made in house; host or cells: Escherichia coli
T2 sequence (P07814 1001-1512 limits assumed): T1 sequence (P07814 1001-1512 F1097A/E1123A/R1152L) with A97F, A123E, L152R

phosphorylation of SMAD2 = test: Phosphorylation of SMAD2 (TGF‐β pathway), immunoblot; assay type: cell-based, human; details: TGF‐β 2 ng/ml, 15 h
Method: (§1) The levels of proteins were determined by immunoblot assay. […] The lowest concentration at which protein levels started to decrease was normalized by IC50 values for collagen level and used as the y‐axis value. […] The slope and R^2 value were calculated using GraphPad Prism 7.0. […] The activation of the TGF‐β pathway was determined by monitoring the phosphorylation of SMAD2. Immunoblot images are representative of three biologically independent experiments. • The band intensities of the immunoblot images in (C) were quantified using ImageJ (n = 3; One‐way ANOVA; *P < 0.05, **P < 0.01, ***P < 0.001; mean ± SEM). Source data are available online for this figure.

WI‐26 VA4 cells = test: Immunoblot of cellular protein levels with different proline content; assay type: cell-based, human; details: Fig 2A
Method: as §1

O=C(CC1NCCCC1O)Cn1cnc2cc(Br)c(Cl)cc2c1=O (stereo not shown) [HF, Halofuginone, reference compound]
Fraction bound, average ([1]; Dose 3.0518 nM): -0.2588
Fraction bound ([1]; Dose 3.0518 nM): -0.0691 and -0.4485
Fraction bound, average ([1]; Dose 6.1035 nM): 0.0816
Fraction bound ([1]; Dose 6.1035 nM): -0.1353 and 0.0688 and 0.3113
Fraction bound, average ([1]; Dose 12.207 nM): -0.0324
Fraction bound ([1]; Dose 12.207 nM): -0.1134 and -0.0549 and 0.0712
Fraction bound, average ([1]; Dose 24.4141 nM): 0.1754
Fraction bound ([1]; Dose 24.4141 nM): 0.2387 and 0.0706 and 0.2171
Fraction bound, average ([1]; Dose 48.8281 nM): 0.0946
Fraction bound ([1]; Dose 48.8281 nM): 0.0297 and 0.0849 and 0.1693
Fraction bound, average ([1]; Dose 97.6563 nM): -0.0450
Fraction bound ([1]; Dose 97.6563 nM): -0.0271 and 0.1069 and -0.2149
Fraction bound, average ([1]; Dose 195.312 nM): 0.0503
Fraction bound ([1]; Dose 195.312 nM): 0.0657 and 0.2487 and -0.1634
Fraction bound, average ([1]; Dose 390.625 nM): -0.0697
Fraction bound ([1]; Dose 390.625 nM): 0.2249 and -0.2797 and -0.1544
Fraction bound, average ([1]; Dose 781.25 nM): 0.0626
Fraction bound ([1]; Dose 781.25 nM): 0.0905 and 0.1699 and -0.0724
Fraction bound, average ([1]; Dose 1562.5 nM): 0.4132
Fraction bound ([1]; Dose 1562.5 nM): 0.3970 and 0.3491 and 0.4935
Fraction bound, average ([1]; Dose 3125 nM): 0.2921
Fraction bound ([1]; Dose 3125 nM): 0.2701 and 0.2589 and 0.3472
Fraction bound, average ([1]; Dose 6250 nM): 0.4932
Fraction bound ([1]; Dose 6250 nM): 0.1312 and 0.6482 and 0.7002
Fraction bound, average ([1]; Dose 12500 nM): 0.6254
Fraction bound ([1]; Dose 12500 nM): 0.5193 and 0.6344 and 0.7226
Fraction bound, average ([1]; Dose 25000 nM): 0.6785
Fraction bound ([1]; Dose 25000 nM): 0.6923 and 0.6116 and 0.7317
Fraction bound, average ([1]; Dose 50000 nM): 0.8304
Fraction bound ([1]; Dose 50000 nM): 1.1885 and 0.7220 and 0.5806
Fraction bound, average ([1]; Dose 100000 nM): 1.0687
Fraction bound ([1]; Dose 100000 nM): 0.9757 and 1.0430 and 1.1875
IC50 ([2]; Homo sapiens, WI26VA4, read-out: IC50, collagen level): 15.2 nM
Collagen level, average ([2]; WI-26 VA4 EV, 0.3 nM): 105.43 % of control
Collagen level, single replicates ([2]; WI-26 VA4 EV, 0.3 nM): 107.71 % of control and 102.31 % of control and 99.56 % of control and 107.96 % of control and 119.37 % of control and 97.79 % of control and 105.72 % of control and 112.41 % of control and 97.00 % of control and 105.68 % of control and 103.25 % of control
Collagen level, average ([2]; WI-26 VA4 EV, 1 nM): 98.88 % of control
Collagen level, single replicates ([2]; WI-26 VA4 EV, 1 nM): 99.81 % of control and 96.49 % of control and 94.72 % of control and 113.88 % of control and 89.98 % of control and 98.97 % of control and 99.45 % of control and 90.47 % of control and 100.22 % of control and 101.63 % of control and 90.65 % of control and 110.29 % of control
Collagen level, average ([2]; WI-26 VA4 EV, 3 nM): 98.91 % of control
Collagen level, single replicates ([2]; WI-26 VA4 EV, 3 nM): 95.48 % of control and 110.90 % of control and 101.31 % of control and 98.76 % of control and 84.68 % of control and 101.40 % of control and 94.43 % of control and 83.51 % of control and 102.77 % of control and 119.57 % of control and 100.02 % of control and 94.04 % of control
Collagen level, average ([2]; WI-26 VA4 EV, 10 nM): 67.80 % of control
Collagen level, single replicates ([2]; WI-26 VA4 EV, 10 nM): 70.56 % of control and 73.60 % of control and 52.16 % of control and 80.52 % of control and 55.32 % of control and 68.13 % of control and 71.03 % of control and 51.88 % of control and 67.22 % of control and 78.89 % of control and 53.10 % of control and 91.18 % of control
Collagen level, average ([2]; WI-26 VA4 EV, 30 nM): 31.49 % of control
Collagen level, single replicates ([2]; WI-26 VA4 EV, 30 nM): 29.59 % of control and 29.66 % of control and 28.02 % of control and 34.01 % of control and 34.11 % of control and 31.81 % of control and 31.01 % of control and 33.29 % of control and 33.04 % of control and 33.86 % of control and 29.96 % of control and 29.53 % of control
Collagen level, average ([2]; WI-26 VA4 EV, 100 nM): 6.34 % of control
Collagen level, single replicates ([2]; WI-26 VA4 EV, 100 nM): 7.42 % of control and 5.23 % of control and 5.03 % of control and 5.46 % of control and 5.70 % of control and 6.01 % of control and 7.87 % of control and 7.08 % of control and 6.26 % of control and 7.39 % of control and 6.77 % of control and 5.82 % of control
Collagen level, average ([2]; WI-26 VA4 EV, 300 nM): 4.49 % of control
Collagen level, single replicates ([2]; WI-26 VA4 EV, 300 nM): 4.87 % of control and 3.68 % of control and 2.38 % of control and 3.50 % of control and 4.00 % of control and 5.84 % of control and 5.04 % of control and 4.31 % of control and 5.22 % of control and 6.88 % of control and 2.82 % of control and 5.35 % of control
Collagen level, average ([2]; WI-26 VA4 EV, 1000 nM): 5.68 % of control
Collagen level, single replicates ([2]; WI-26 VA4 EV, 1000 nM): 6.31 % of control and 4.51 % of control and 4.24 % of control and 5.46 % of control and 6.24 % of control and 6.40 % of control and 5.99 % of control and 5.56 % of control and 5.73 % of control and 6.61 % of control and 4.97 % of control and 6.15 % of control
HillSlope, collagen level ([2]; WI-26 VA4 EV, four-parameter fit): -1.549
LogIC50, collagen level ([2]; WI-26 VA4 EV, log of concentration in nM, four-parameter fit): 1.181
Kd (His‐PARS1; + ATP (1 mM)): 0.178 µM
Kd (His‐PARS1; - ATP): 47.9 µM
SMAD2 phosphorylation (phosphorylation of SMAD2): reduced SMAD2 phosphorylation
effective dose for decreasing general proteins (SMAD2, AIMP2, AMPKα, cyclin D1) compared with COL1A1 (WI‐26 VA4 cells): about three times
